From patent US8703805B2 (Exelixis Patent Company LLC, priority 2005, dated 2014) come the findings set out here.

For this experiment, the system named is LXRα and/or LXRβ. Briefly: LXR/LXRE co-transfection assay (luciferase reporter, CV-1 cells). The class given is cell-based, human. To be noted: IC50 or EC50 for LXR (LXRα and/or LXRβ, not distinguished), tested as described in Example 109, CV-1 cells. Put shortly:
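Luciferase readout after 20 h compound exposure at 37 °C in CV-1 cells transiently expressing human LXRα or LXRβ with RXRα and an LXRE-driven reporter. Dose-response over 8 points at ½-log spacing, 4 wells each, fitted for EC50/IC50; values average ≥3 independent experiments, efficacy as % of high control.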
As a reminder, the EC50 is the concentration giving half of the maximal effect. High values mean a need for much substance, low ones an effect from little substance. `CC(C)(O)c1cc(-c2ccc(-c3cccc(S(C)(=O)=O)c3)cc2)n(-c2ncccc2C(F)(F)F)n1` [Example 1202, 2-{5-[3′-(methylsulfonyl)phenyl-4-yl]-1-[3-(trifluoromethyl)pyridin-2-yl]-1H-pyrazol-3-yl}propan-2-ol] displayed an EC50 of less than 1 µM.

Compound `CC(C)(O)c1cc(-c2ccc(-c3cccc(S(C)(=O)=O)c3)s2)n(-c2ccc(Cl)cc2Cl)n1` [Example 1280, 2-[1-(2,4-dichlorophenyl)-5-{5-[3-(methylsulfonyl)phenyl]-2-thienyl}-1H-pyrazol-3-yl]propan-2-ol] gave an EC50 of 1 to 10 µM.

Compound `CC(C)S(=O)(=O)c1cccc(-c2ccc(-c3cc(C(F)(F)F)nn3-c3ncccc3C(F)(F)F)s2)c1` [Example 1169, 2-[5-(5-{3-[(1-methylethyl)sulfonyl)phenyl}-2-thienyl)-3-(trifluoromethyl)-1H-pyrazol-1-yl]-3-(trifluoromethyl)pyridine] showed an EC50 of less than 1 µM.

With `CONC(=O)c1cc(-c2ccc(-c3cccc(S(C)(=O)=O)c3)s2)n(-c2ccccc2Cl)n1` [Example 1163, 1-(2-chlorophenyl)-N-(methyloxy)-5-{5-[3-(methylsulfonyl)phenyl]-2-thienyl}-1H-pyrazole-3-carboxamide], the EC50 was 1 to 10 µM.

`CC(C)(O)c1nn(-c2ccccc2OC(F)(F)F)c(-c2ccc(-c3cccc(S(C)(=O)=O)c3)s2)c1Cl` [Example 1367, 2-(4-chloro-5-{5-[3-(methylsulfonyl)phenyl]-2-thienyl}-1-{2-[(trifluoromethyl)oxy]phenyl}-1H-pyrazol-3-yl)propan-2-ol] returned an EC50 of less than 1 µM.

On to `CC(C)(O)c1cc(-c2ccc(-c3ccc(S(C)(=O)=O)cc3)cc2)n(-c2ccccc2Cl)n1` [Example 1305, 2-{1-(2-chlorophenyl)-5-[4′-(methylsulfonyl)biphenyl-4-yl]-1H-pyrazol-3-yl}propan-2-ol], for which the EC50 was 1 to 10 µM.

In the case of `COC(=O)c1cc(-c2cc(-c3cccc(S(C)(=O)=O)c3)co2)n(-c2ccccc2Cl)n1` [Example 1234, methyl 1-(2-chlorophenyl)-5-{4-[3-(methylsulfonyl)phenyl]furan-2-yl}-1H-pyrazole-3-carboxylate], the EC50 is less than 1 µM.

`CC(C)(O)c1nn(-c2ccccc2C(F)(F)F)c(-c2ccc(-c3cccc(S(C)(=O)=O)c3)s2)c1Cl` [Example 1350, 2-(4-chloro-5-{5-[3-(methylsulfonyl)phenyl]-2-thienyl}-1-[2-(trifluoromethyl)phenyl]-1H-pyrazol-3-yl)propan-2-ol] gave an EC50 of less than 1 µM.

The compound `O=C(c1ccc(-c2cc(C(F)(F)F)nn2-c2ccccc2Cl)cc1)N1CCCC1CO` (centres unmarked) [Example 1000, [1-({4-[1-(2-chlorophenyl)-3-(trifluoromethyl)-1H-pyrazol-5-yl]phenyl}carbonyl)pyrrolidin-2-yl]methanol] came in with an EC50 of 1 to 10 µM.

Compound `COC(=O)c1cccc(-n2nc(C(=O)OC)cc2-c2ccc(-c3cccc(S(C)(=O)=O)c3)s2)c1` [Example 1220, methyl 1-{3-[(methyloxy)carbonyl]phenyl}-5-{5-[3-(methylsulfonyl)phenyl]-2-thienyl}-1H-pyrazole-3-carboxylate] gave an EC50 of less than 1 µM.

Take `CC(C)(O)c1cc(-c2ccc(-c3cccc(S(C)(=O)=O)c3)s2)n(-c2ccncc2Cl)n1` [Example 112, 2-(1-(3-chloropyridin-4-yl)-5-(5-(3-(methylsulfonyl)phenyl)thiophen-2-yl)-1H-pyrazol-3-yl)propan-2-ol]: the EC50 was 1 to 10 µM.

`CC(C)(O)c1cc(-c2ccc(-c3cccc(S(N)(=O)=O)c3)cc2)n(-c2ccccc2Cl)n1` [Example 1300, 4′-[1-(2-chlorophenyl)-3-(1-hydroxy-1-methylethyl)-1H-pyrazol-5-yl]biphenyl-3-sulfonamide] gave an EC50 of 1 to 10 µM.

For the compound `CN(C)CCCN(C)C(=O)c1cc(-c2ccc(-c3cccc(S(C)(=O)=O)c3)s2)n(-c2ccccc2Cl)n1` [Example 588, 1-(2-chlorophenyl)-N-[3-(dimethylamino)propyl]-N-methyl-5-{5-[3-(methylsulfonyl)phenyl]-2-thienyl}-1H-pyrazole-3-carboxamide], the EC50 is less than 1 µM.

`CCC(O)c1cc(-c2ccc(-c3cccc(S(C)(=O)=O)c3)s2)n(-c2ccccc2Cl)n1` (centres unmarked) [Example 1175, 1-[1-(2-chlorophenyl)-5-{5-[3-(methylsulfonyl)phenyl]-2-thienyl}-1H-pyrazol-3-yl]propan-1-ol] gave a 50% effective concentration (EC50) of less than 1 µM.

`CC(C)NC(=O)c1cccc(-c2ccc(-c3cc(C(C)(C)O)nn3-c3ccccc3Cl)cc2)c1` [Example 1292, 4′-[1-(2-chlorophenyl)-3-(1-hydroxy-1-methylethyl)-1H-pyrazol-5-yl]-N-(1-methylethyl)biphenyl-3-carboxamide] showed an EC50 of 1 to 10 µM.

The compound `O=C(O)Cc1ccc(F)c(-c2ccc(-c3cc(C(F)(F)F)nn3-c3ncccc3C(F)(F)F)s2)c1` [Example 1152, [4-fluoro-3-(5-{3-(trifluoromethyl)-1-[3-(trifluoromethyl)pyridin-2-yl]-1H-pyrazol-5-yl}-2-thienyl)phenyl]acetic acid] yielded an EC50 of 1 to 10 µM.

Take `COC(=O)c1cc(-c2ccccc2Cl)n(-c2ccc(-c3cccc(S(C)(=O)=O)c3)cc2)n1` [Example 1218, methyl 5-(2-chlorophenyl)-1-[3′-(methylsulfonyl)biphenyl-4-yl]-1H-pyrazole-3-carboxylate]: the EC50 was less than 1 µM.

On to `Cc1cc(-c2cccc(S(C)(=O)=O)c2)sc1-c1cc(C(C)(C)O)nn1-c1c(Cl)cccc1Cl` [Example 137, 2-(1-(2,6-dichlorophenyl)-5-(3-methyl-5-(3-(methylsulfonyl)phenyl)thiophen-2-yl)-1H-pyrazol-3-yl)propan-2-ol], for which the EC50 is less than 1 µM.

`CC(C)(O)c1nn(-c2c(Cl)cccc2Cl)c(-c2ccc(-c3cccc(S(C)(=O)=O)c3)s2)c1Cl` [Example 1348, 2-[4-chloro-1-(2,6-dichlorophenyl)-5-{5-[3-(methylsulfonyl)phenyl]-2-thienyl}-1H-pyrazol-3-yl]propan-2-ol] yielded an EC50 of less than 1 µM.

Turning to `CC(C)(O)c1cc(-c2ccc(-c3cccc(S(C)(=O)=O)c3)s2)n(-c2cc(Cl)cc(Cl)c2)n1` [Example 1323, 2-[1-(3,5-dichlorophenyl)-5-{5-[3-(methylsulfonyl)phenyl]-2-thienyl}-1H-pyrazol-3-yl]propan-2-ol], the EC50 lay within 1 to 10 µM.

Take `CC(C)(O)c1cc(-c2ccc(-c3cccc(S(C)(=O)=O)c3)cc2Cl)n(-c2cnccc2C(F)(F)F)n1` [Example 117, 2-(5-(3-chloro-3′-(methylsulfonyl)biphenyl-4-yl)-1-(4-(trifluoromethyl)pyridin-3-yl)-1H-pyrazol-3-yl)propan-2-ol]: the EC50 lay within 1 to 10 µM.

In turn, `CC(C)(O)c1cc(-c2ccc(-c3ccc4cc[nH]c4c3)cc2)n(-c2ccccc2Cl)n1` [Example 1282, 2-{1-(2-chlorophenyl)-5-[4-(1H-indol-6-yl)phenyl]-1H-pyrazol-3-yl}propan-2-ol] came in with an EC50 of 1 to 10 µM.

The compound `CC(C)(CNC=O)c1cc(-c2ccc(-c3cccc(S(C)(=O)=O)c3)s2)n(-c2ccccc2Cl)n1` [Example 1204, N-{2-[1-(2-chlorophenyl)-5-{5-[3-(methylsulfonyl)phenyl]-2-thienyl}-1H-pyrazol-3-yl]-2-methylpropyl}formamide] registered an EC50 of 1 to 10 µM.
